Test system: HepG2 cells
Details: HepG2 conditioned medium, 10 μM, 24 h
Protocol: Ten million Snu398 or HepG2 cells per flask were plated in R10 medium in T150 tissue culture flasks and allowed to attach overnight. The following morning, medium was replaced with medium containing either DMSO or 10 μM LDHA inhibitor, and cells were incubated for 24 h at 37°C. The conditioned medium was collected and cells were washed, lifted by trypsinization and pelleted. Both medium and cell samples were submitted for mass spectroscopy (MS) analysis of over 500 individual metabolites. All samples were prepared in replicates of five.

For COc1ncc(-c2ccc3c(Nc4cc(C(=O)O)cc(C5CCCC5)c4)c(S(=O)(=O)NC4CC4)cnc3c2)c(OC)n1 [Compound 2], the “fold change 1-oleoylglycerophosphocholine” value was 0.94, the “fold change 1-palmitoleoylglycerophosphocholine*” value was 0.91 and the “fold change 1-palmitoylglycerophosphocholine” value was 0.94. The “fold change 1-stearoylglycerophosphocholine” value was 0.95, the “fold change 2'-O-methylguanosine” value was 0.70 and the “fold change 2-aminobutyrate” value was 0.91. The “fold change 2-hydroxybutyrate (AHB)” value was 0.89, the “fold change 2-hydroxyglutarate” value was 0.93 and the “fold change 2-methylbutyroylcarnitine” value was 0.94. For the same molecule, the “fold change 2-methylbutyrylglycine” value was 0.81, the “fold change 2-oleoylglycerophosphocholine*” value was 0.96 and the “fold change 2-palmitoylglycerophosphocholine*” value was 0.98. For the same molecule, the “fold change 2-stearoylglycerophosphocholine*” value was 1.16, the “fold change 3-(4-hydroxyphenyl)lactate” value was 1.15 and the “fold change 3-dehydrocarnitine*” value was 1.04. The “fold change 3-indoxyl sulfate” value was 0.96, the “fold change 3-methyl-2-oxobutyrate” value was 0.99 and the “fold change 3-methyl-2-oxovalerate” value was 0.94. For the same molecule, the “fold change 4-acetamidobutanoate” value was 0.92, the “fold change 4-guanidinobutanoate” value was 0.88 and the “fold change 4-methyl-2-oxopentanoate” value was 0.96. For the same molecule, the “fold change 5-oxoproline” value was 1.02, the “fold change 6'-sialyllactose” value was 1.01 and the “fold change C-glycosyltryptophan*” value was 1.06. The “fold change HEPES” value was 0.97, the “fold change Isobar: 2-propylpentanoic acid, 2-ethylhexanoic acid” value was 1.01 and the “fold change N1-methyladenosine” value was 1.02. The “fold change N1-methylguanosine” value was 0.87, the “fold change N6-carbamoylthreonyladenosine” value was 1.10 and the “fold change N-acetylaspartate (NAA)” value was 0.70. The “fold change N-acetylneuraminate” value was 1.09, the “fold change N-acetylornithine” value was 0.99 and the “fold change X - 02952” value was 8.06. For the same molecule, the “fold change X - 02973” value was 1.18, the “fold change X - 03090” value was 0.99 and the “fold change X - 04015” value was 1.00. The “fold change X - 04133” value was 1.08, the “fold change X - 04135” value was 1.13 and the “fold change X - 04148” value was 0.80. The “fold change X - 04252” value was 0.53, the “fold change X - 04357” value was 1.09 and the “fold change X - 05907” value was 0.49. For the same molecule, the “fold change X - 06126” value was 0.78, the “fold change X - 06911” value was 0.99 and the “fold change X - 08172” value was 0.15. The “fold change X - 08889” value was 1.21, the “fold change X - 08895” value was 1.11 and the “fold change X - 09008” value was 0.87. For the same molecule, the “fold change X - 09026” value was 0.58, the “fold change X - 10475” value was 0.76 and the “fold change X - 10476” value was 0.43. The “fold change X - 10634” value was 0.56, the “fold change X - 10740” value was 1.18 and the “fold change X - 10869” value was 0.93. For the same molecule, the “fold change X - 11081” value was 1.03, the “fold change X - 11315” value was 0.83 and the “fold change X - 11533” value was 1.04. For the same molecule, the “fold change X - 11593” value was 1.12, the “fold change X - 11787” value was 1.01 and the “fold change X - 12013” value was 1.09. For the same molecule, the “fold change X - 12015” value was 0.97, the “fold change X - 12117” value was 0.78 and the “fold change X - 12216” value was 0.72. The “fold change X - 12339” value was 1.38, the “fold change X - 12435” value was 0.91 and the “fold change X - 12602” value was 0.93. For the same molecule, the “fold change X - 12729” value was 1.15, the “fold change X - 12749” value was 0.95 and the “fold change X - 12776” value was 0.86. The “fold change X - 12786” value was 1.07, the “fold change X - 12792” value was 0.77 and the “fold change X - 12799” value was 1.04. The “fold change X - 12944” value was 0.83, the “fold change X - 13100” value was 1.00 and the “fold change X - 13103” value was 0.95. The “fold change X - 13104” value was 1.11, the “fold change X - 13110” value was 1.00 and the “fold change X - 13115” value was 0.98. For the same molecule, the “fold change X - 13117” value was 1.01, the “fold change X - 13166” value was 0.95 and the “fold change X - 13483” value was 0.84. For the same molecule, the “fold change X - 13491” value was 1.19, the “fold change X - 13494” value was 0.82 and the “fold change X - 13496” value was 1.11. For the same molecule, the “fold change X - 13507” value was 1.00, the “fold change X - 13553” value was 1.05 and the “fold change X - 13581” value was 1.00. For the same molecule, the “fold change X - 13857” value was 0.74, the “fold change X - 14056” value was 0.96 and the “fold change X - 14574” value was 0.86. For the same molecule, the “fold change X - 14588” value was 0.93, the “fold change X - 15558” value was 1.17 and the “fold change X - 15559” value was 1.15. For the same molecule, the “fold change X - 15562” value was 1.13, the “fold change X - 15563” value was 1.13 and the “fold change X - 15678” value was 1.32. For the same molecule, the “fold change X - 15808” value was 1.14, the “fold change X - 16103” value was 0.86 and the “fold change X - 16116” value was 1.18. For the same molecule, the “fold change X - 16200” value was 1.04, the “fold change X - 16206” value was 0.95 and the “fold change X - 16439” value was 1.13. For the same molecule, the “fold change X - 16444” value was 1.07, the “fold change X - 17112” value was 1.02 and the “fold change X - 17430” value was 1.13. For the same molecule, the fold change acetylcarnitine was 0.95, the fold change acetylphosphate was 0.92 and the fold change alanine was 0.99. The fold change alanylglutamine was 0.96, the fold change allantoin was 0.85 and the fold change arabitol was 0.72. The “fold change arachidonate (20:4n6)” value was 1.07, the fold change arginine was 0.98 and the fold change asparagine was 0.30. For the same molecule, the fold change aspartate was 0.84, the fold change aspartylleucine was 1.01 and the fold change beta-alanine was 1.41. It also gave a fold change beta-hydroxyisovalerate of 0.84, a fold change beta-hydroxypyruvate of 0.79 and a fold change betaine of 0.97. For the same molecule, the fold change biotin was 0.96, the fold change butyrylcarnitine was 0.90 and the “fold change caproate (6:0)” value was 0.83. For the same molecule, the “fold change caprylate (8:0)” value was 0.79, the fold change carnitine was 1.03 and the “fold change catechol sulfate” value was 1.01. The fold change choline was 1.06, the fold change citrate was 0.97 and the fold change citrulline was 0.87. The fold change creatine was 1.02, the fold change creatinine was 0.94 and the “fold change cyclo(leu-ala)” value was 0.49. For the same molecule, the fold change cysteine was 0.78, the “fold change cysteine sulfinic acid” value was 1.00 and the “fold change cysteine-glutathione disulfide” value was 1.28. The fold change deoxycarnitine was 0.98, the “fold change dimethyl sulfoxide*” value was 1.04 and the “fold change dimethylarginine (SDMA + ADMA)” value was 0.97. The “fold change docosahexaenoate (DHA; 22:6n3)” value was 0.92, the “fold change docosapentaenoate (n3 DPA; 22:5n3)” value was 1.17 and the fold change erythritol was 0.92. For the same molecule, the “fold change erythronate*” value was 0.99, the fold change ethanolamine was 1.13 and the fold change folate was 0.99. For the same molecule, the fold change fructose was 1.06, the fold change fumarate was 0.80 and the “fold change gamma-glutamylisoleucine*” value was 1.02. For the same molecule, the fold change gamma-glutamylleucine was 0.87, the fold change gamma-glutamylphenylalanine was 0.85 and the fold change gamma-glutamylvaline was 0.73. For the same molecule, the fold change glucose was 0.87, the fold change glutamate was 1.00 and the fold change glutamine was 0.96. The fold change glycerate was 1.05, the fold change glycerol was 1.09 and the “fold change glycerol 3-phosphate (G3P)” value was 1.47. The “fold change glycerophosphorylcholine (GPC)” value was 0.95, the fold change glycine was 0.87 and the fold change glycochenodeoxycholate was 1.01. The fold change glycocholate was 0.96, the fold change glycylglycine was 0.55 and the fold change glycylleucine was 0.85. For the same molecule, the fold change glycyltyrosine was 1.01, the fold change glycylvaline was 1.06 and the “fold change heme*” value was 0.95. It also gave a fold change hexadecanedioate of 0.84, a fold change hippurate of 0.98 and a fold change histidine of 1.02. The “fold change homostachydrine*” value was 1.00, the fold change hydroquinone was 0.97 and the fold change indolelactate was 1.03. For the same molecule, the fold change isobutyrylcarnitine was 0.98, the fold change isoleucine was 1.02 and the fold change isovalerate was 0.80. It also gave a fold change isovalerylcarnitine of 1.29, a fold change kynurenate of 1.06 and a fold change kynurenine of 1.00. It also gave a fold change lactate of 0.89, a fold change leucine of 1.03 and a fold change lysine of 0.70. The fold change lysylleucine was 1.12, the fold change malate was 1.02 and the fold change mannitol was 0.57. It also gave a fold change methionine of 0.96, a fold change myo-inositol of 0.85 and a fold change nicotinamide of 0.80. The fold change ornithine was 0.79, the “fold change p-aminobenzoate (PABA)” value was 0.99 and the “fold change p-cresol sulfate” value was 0.91. The “fold change palmitoyl sphingomyelin” value was 0.92, the fold change pantothenate was 1.00 and the “fold change phenol red” value was 0.97. For the same molecule, the “fold change phenol sulfate” value was 0.93, the fold change phenylacetylglycine was 1.02 and the fold change phenylalanine was 0.98. It also gave a fold change phosphate of 0.99, a fold change pipecolate of 0.97 and a fold change pro-hydroxy-pro of 0.98. For the same molecule, the fold change proline was 0.93, the fold change propionylcarnitine was 1.00 and the fold change pseudouridine was 0.96. For the same molecule, the fold change putrescine was 0.90, the fold change pyridoxate was 0.92 and the “fold change pyridoxine (Vitamin B6)” value was 1.04. The fold change pyruvate was 1.37, the fold change ribitol was 0.75 and the “fold change riboflavin (Vitamin B2)” value was 0.98. For the same molecule, the fold change scyllo-inositol was 1.09, the fold change serine was 0.61 and the “fold change serotonin (5HT)” value was 0.82. The fold change sorbitol was 0.53, the fold change succinate was 1.07 and the fold change taurocholate was 1.00. For the same molecule, the fold change taurodeoxycholate was 0.93, the fold change tetradecanedioate was 1.13 and the “fold change thiamin (Vitamin B1)” value was 1.00. The fold change threitol was 0.99, the fold change threonine was 0.96 and the “fold change trans-4-hydroxyproline” value was 0.90. The fold change tryptophan was 1.03, the fold change tyrosine was 0.99 and the fold change uracil was 0.88. It also gave a fold change urea of 0.83, a fold change uridine of 0.93 and a fold change valerylcarnitine of 1.27. The fold change valine was 0.98 and the fold change xylitol was 0.88.

— paper PMC4178217, “Quinoline 3-sulfonamides inhibit lactate dehydrogenase A and reverse aerobic glycolysis in cancer cells” (Cancer & Metabolism, 2013)
